{"source": "paper PMC9680484", "about": "“Synthesis, Biophysical Interaction of DNA/BSA, Equilibrium and Stopped-Flow Kinetic Studies, and Biological Evaluation of bis(2-Picolyl)amine-Based Nickel(II) Complex” (Biomimetics, 2022)", "key": {"[1]": {"tested_on": "human liver cancer (HepG2) cell lines", "assay": "MTT cytotoxicity assay, liver cancer cells", "format": "cell-based", "settings": "Homo sapiens, HepG2, 24 h", "protocol": "Methyl thiazolyl tetrazolium (MTT) colorimetry [47] was used to assess the cytotoxicity of BPA and one for human liver cancer (HepG2) cell lines. MTT can be converted into formazan by living cells with an active metabolism, but this ability is lost in dying cells. Therefore, in this study, the MTT assay was used to determine how many viable cells there were. Before the investigated compounds were added, cells were cultured in 96-well flat-bottomed microtiter plates at a density of 1 × 10^4 cells/well (100 l/well) for 70 to 80 percent confluent cultures, and the cultures were then incubated at 37 °C and 5 percent CO2 for 24 h. The compounds were used in a range of concentrations (31.2, 62.5, 125.0, 250.0, 500.0, and 1000.0 g/mL), and the cells were cultured for 24 h. Then, 10 µl of the 12 mM MTT stock solution (5 mg/mL MTT in sterile PBS) was added to each well at the conclusion of the incubation period. After that, the plate was incubated at 37 °C for 4 h. […] On an ELISA reader, the absorbance at 570 nm was read (StatFax-2100, Awareness Technology, Inc., USA). The percentage of cells inhibited was calculated using: % CellInhibition=100−T−T0/C−T0 where T is the optical density of the test sample, To is the optical density at time zero, and C is the optical density of the control."}, "BSA [2]": {"target": "T1, BSA (Bos taurus, UniProt P02769)", "assay": "Stopped-flow kinetics of BSA binding", "set-up": "species or system bovine", "procedure": "(§1) The kinetics of protein and DNA binding was measured using an Applied KinetAsyst SF-61DX2 stopped-flow instrument. At 25 °C, equal volumes of compounds against protein and DNA solutions were rapidly mixed in the stopped-flow instrument. The binding reactions were studied using a 10-fold excess of the ligand BPA and NiBPA under pseudo-first-order conditions. For each experimental condition, all recorded rate constants were taken into account, from which the mean values of at least three independent kinetic runs were calculated.\n(§2) Because many medicines with lower cellular toxicity have a slow DNA dissociation rate, several factors, such as the strength of binding and the drug’s affinity for DNA, as well as the kinetic stability of DNA-drug adducts, may contribute to antitumor effectiveness. The stopped-flow technique was used to study in-vitro protein/DNA binding to BPA and propose a mechanism in order to obtain such information. The kinetic traces were recorded at 265 nm within 100 s (BPA) and 5 s (NiBPA), respectively, to capture the interaction process with BSA. […] In the case of ct-DNA interaction, the kinetic traces were recorded at 290 nm, and both BPA and NiBPA followed a similar pattern since kinetic traces for BPA and NiBPA were collected within 100 s, covering the entire interaction process. […] Over the concentration range of BPA and NiBPA, the study of kinetic traces performed under pseudo-first-order conditions may be fitted to two kinetic phases (Figure 7) evaluated using the following Equation (3):(3) A=a1e^−kobs1t1+a2e^−kobs2t2+A0\n(§3) The interaction process involves at least two steps, and the stopped-flow records the two kinetic phases as a fast binding (rate constant kobs1) followed by a slow first-order isomerization process (rate constant kobs2). […] Both kon and koff were used to calculate the equilibrium association constants Kaff [kon/koff M^−1] and the equilibrium dissociation constants Kd [koff/kon M].\nThe difference between the free energy, G, of BSA molecules alone in the solution and when bound together is related to the equilibrium dissociation constant, Kd1. Equation (4) gives the binding free energy change Gbind. (4) ΔGbind=RT·ln(Kd)"}, "BSA [3]": {"target": "T1, BSA", "assay": "BSA UV-vis absorption titration (Benesi-Hildebrand binding constant)", "set-up": "species or system bovine", "procedure": "Interactions between the most common blood protein, serum albumin, and complexes have sparked a lot of interest recently because of their structural similarity to human serum albumin. To better understand the mechanism of interaction between BPA and its nickel(II) complex NiBPA with BSA, fluorescence quenching studies were carried out. BSA’s fluorescence is due to intrinsic protein characteristics, such as the presence of tryptophan and tyrosine residues. Variations in the emission spectra caused by protein conformational changes, subunit interaction, substrate binding, or denaturation are largely attributed to the tryptophan residue. As a result, BSA fluorescence behavior can provide valuable insight into protein structure, dynamics, and folding. Fluorescence titration experiments were performed at room temperature with BSA and different concentrations of BPA and NiBPA in the range 200–600 nm (λex. 280 nm). A slight red shift (40 percent, BPA; 65 percent, NiBPA; Figure 3) reduced the intensity of BSA fluorescence at 343 nm. The presence of the protein’s active site in a hydrophobic environment causes the redshift. […] The quenching mechanism can be set to either static or dynamic operation. […] The binding constants for BPA and NiBPA were calculated using Equation (1) and found to be 0.4 × 10^4 M^−1 and 0.82 × 10^4 M^−1, respectively (Table 1). […]"}, "S. aureus": {"tested_on": "S. aureus", "assay": "Antibacterial MIC/MBC, S. aureus", "format": "cell-based", "settings": "Gram-positive", "procedure": "(§4) Several studies have shown that organic compound coordination with a metallic element results in significant changes in the biological activity of both the organic ligand and the metal. As a result, BPA and its nickel complex NiBPA were tested in vitro for antibacterial activity against Gram-positive (S. aureus and S epidermidis) and Gram-negative (P. mirabilis and E. coli) bacteria. Figure 10 depicts the antibacterial function of BPA and NiBPA as the diameter of the growth-inhibition region in millimeters. […] The MBC is identified by determining the lowest concentration of antibacterial agents that reduces the viability of the initial bacterial inoculum by 99.9%. The MIC or MBC strain was chosen based on the value agreed upon on two or more occasions. The antibiotic tobramycin (TOB) was used to control the situation. The inhibition zone, as well as the MIC and MBC data, leads to the following conclusions. […] This is explained by the metal ion’s polarity and cationic charge, as NiBPA has a cationic property with two positive charges. […] The interaction between Gram-negative bacteria and NiBPA was stronger than that of Gram-positive bacteria due to the higher negative charge on the cell surface, despite the presence of an outer membrane in Gram-negative bacteria (see Figure 11)."}, "P. aeruginosa": {"tested_on": "P. aeruginosa", "assay": "Antibacterial MIC/MBC, P. aeruginosa", "format": "cell-based", "settings": "Gram-negative"}, "E. faecalis": {"tested_on": "E. faecalis", "assay": "Antibacterial MIC/MBC, E. faecalis", "format": "cell-based", "settings": "Gram-positive"}, "E. coli": {"tested_on": "E. coli", "assay": "Antibacterial MIC/MBC, E. coli", "format": "cell-based", "settings": "Gram-negative", "procedure": "as §4"}, "BSA [4]": {"target": "T1, BSA", "assay": "BSA fluorescence quenching titration (Stern-Volmer / Scatchard)", "format": "binding, bovine", "settings": "for KSV: Stern-Volmer constant", "procedure": "The excitation and emission wavelengths of BSA at 280 nm were monitored in protein binding studies using BSA ([…]) solution prepared in Tris-HCl buffer (pH 7.5), and the solution was stored in a dark place at 4 °C.\nInteractions between the most common blood protein, serum albumin, and complexes have sparked a lot of interest recently because of their structural similarity to human serum albumin. To better understand the mechanism of interaction between BPA and its nickel(II) complex NiBPA with BSA, fluorescence quenching studies were carried out. BSA’s fluorescence is due to intrinsic protein characteristics, such as the presence of tryptophan and tyrosine residues. Variations in the emission spectra caused by protein conformational changes, subunit interaction, substrate binding, or denaturation are largely attributed to the tryptophan residue. As a result, BSA fluorescence behavior can provide valuable insight into protein structure, dynamics, and folding. Fluorescence titration experiments were performed at room temperature with BSA and different concentrations of BPA and NiBPA in the range 200–600 nm (λex. 280 nm). A slight red shift (40 percent, BPA; 65 percent, NiBPA; Figure 3) reduced the intensity of BSA fluorescence at 343 nm. The presence of the protein’s active site in a hydrophobic environment causes the redshift. […] The quenching mechanism can be set to either static or dynamic operation. Dynamic quenching occurs when the fluorophore and the quencher come into contact during the excited state’s transient existence, whereas static quenching is caused by the formation of a complex between the quencher and the fluorophore in the ground state. BSA (fluorophore) has a UV-vis absorption spectrum that can be used to investigate the type of quenching quickly and easily. […] The binding constants for BPA and NiBPA were calculated using Equation (1) and found to be 0.4 × 10^4 M^−1 and 0.82 × 10^4 M^−1, respectively (Table 1). […] Furthermore, the findings are in line with previous research on related compounds.\nThe Kq value is much higher than the 2 × 10^10 M^−1s^−1 maximum scatters collision quenching constant of quenchers with BSA (Kq = Ksv/τ0), where KSV is the Stern–Volmer constant and τ0 is the average lifetime of the BSA in the absence of the quencher (τ0 = 10 ns). This supports the idea of a static quenching mechanism. […] It is second order in [Q] and thus leads to upward curvy plots of I0/I versus [Q] at higher [Q].\nThe quenching constant (Kq) was calculated using the Stern–Volmer and Scatchard equation and plotted as I0/I vs. [Q] to better understand the quenching process (Figure 3). In addition, Scatchard Equation (2) was used to calculate the equilibrium binding constant:log[(I0 − I)/I] = log Kbin + n log [Q](2) where Kbin is the compound’s BSA binding constant and n is the number of binding sites. From the log (I0 − I)/I vs. log [Q] plot (Figure 5), the binding constant (Kbin) and the number of binding sites (n) have been calculated (Table 1). The estimated value of n (∼1) for BPA and NiBPA strongly supported the existence of a single binding site in BSA."}, "ct-DNA [5]": {"tested_on": "ct-DNA", "assay": "Stopped-flow kinetics of ct-DNA binding", "procedure": "as §1, §2\nas §3, with “M]. […]” for “M].”"}, "[6]": {"assay": "MTT cytotoxicity assay, normal cells", "format": "cell-based", "settings": "Homo sapiens, WI-38, 24 h"}, "ct-DNA [7]": {"tested_on": "ct-DNA", "assay": "ct-DNA electronic absorption titration", "format": "binding", "settings": "phosphate buffer pH 7.2", "procedure": "Electronic absorption measurements were performed with a constant concentration of ctDNA and increasing concentrations of BPA and NiBPA (Na-phosphate buffer solution, pH 7.2). […] Intrinsic fluorescence was measured with the ct-DNA solution at the excitation wavelength (ex, 330), and emission spectra were recorded at 550–700 nm after aliquot addition of BPA and NiBPA.\nAbsorption titration information was depicted in Figure 6 to understand the mode of interaction of complexes with ct-DNA. Increased addition of a solution of BPA to a solution of ct-DNA causes hyperchromic for the band at 264 nm with a blue shift of 5 nm (259 nm), as shown in the absorption titration spectrum (Figure 6). The band at 278 nm, on the other hand, was hypochromic with a small blue shift of 2 nm (276 nm). The presence of […] in the medium was indicated by the isosbestic point in the titration curve at 274 nm. […] The hydrogen bonds formed with the –OH and SH groups of BPA and NiBPA are caused by the presence of many accessible hydrogen binding sites in the DNA major and minor grooves. The binding constants for BPA (0.16 × 10^5 M^−1) and NiBPA (0.52 × 10^5 M^−1) are similar to those of well-known groove binding rather than classical intercalation, implying that NiBPA interacts with ct-DNA much more strongly than BPA under investigation."}}, "note": "Values joined by “and” are separate entries in the source; they are usually repeats but may differ in a detail not shown here. Equal values may be shown once."}
{"compound": "c1ccc(CNCc2ccccn2)nc1", "note": "[BPA, bis(2-picolyl)amine]", "values": [{"measurement": "IC50", "setting": "[1]", "value": "100 ± 1", "unit": "mg/L"}, {"measurement": "Ka1 (k1/k−1)", "setting": "BSA [2]; BSA, 1st step, 25 °C", "value": 73.5, "unit": "M⁻¹"}, {"measurement": "Kd", "setting": "BSA [2]; BSA, 1st step, 25 °C, read-out: Kd1 (k−1/k1)", "value": 13.6, "unit": "mM"}, {"measurement": "ΔG1", "setting": "BSA [2]; BSA, 1st step, ΔGbind = RT·ln(Kd)", "value": -10.6, "unit": "kJ/mol"}, {"measurement": "K2 (irreversible 2nd step)", "setting": "BSA [2]; BSA, 2nd step", "value": 0.82, "unit": "M⁻¹"}, {"measurement": "K2 (2nd step)", "setting": "BSA [2]; BSA, 2nd step, 25 °C, irreversible step for BPA", "value": "Irreversible step with K2 = 0.82 ± 0.08 M^−1s^−1"}, {"measurement": "k−2", "setting": "BSA [2]; BSA, 2nd step, irreversibility", "value": "≈ 0"}, {"measurement": "k−1 (1st step, first-order dissociation constant)", "setting": "BSA [2]; BSA, 25 °C", "value": "0.17 ± 0.0", "unit": "s⁻¹"}, {"measurement": "kon", "setting": "BSA [2]; bovine, read-out: k1 (1st step, second-order association constant)", "value": "12.5 ± 1.1", "unit": "M⁻¹ s⁻¹"}, {"measurement": "Kd", "setting": "BSA [3]", "value": 0.25, "unit": "mM"}, {"measurement": "MBC", "setting": "S. aureus", "value": 0, "unit": "mg/L"}, {"measurement": "MBC", "setting": "P. aeruginosa", "value": 0, "unit": "mg/L"}, {"measurement": "MBC", "setting": "E. faecalis", "value": 0, "unit": "mg/L"}, {"measurement": "MBC", "setting": "E. coli", "value": 0, "unit": "mg/L"}, {"measurement": "Kbin", "setting": "BSA [4]; BSA binding constant from Scatchard equation", "value": "0.25 10^4 M^−1"}, {"measurement": "n (number of binding sites)", "setting": "BSA [4]; Scatchard plot log (I0 − I)/I vs. log [Q]", "value": 1.0}, {"measurement": "KSV", "setting": "BSA [4]", "value": 2100, "unit": "M⁻¹"}, {"measurement": "KSV", "setting": "BSA [4]; BSA fluorescence, λex 280 nm, room temperature", "value": "0.21 10^4 M^−1"}, {"measurement": "Kq", "setting": "BSA [4]; quenching constant, Kq = Ksv/τ0, τ0 = 10 ns", "value": "0.21 10^12 M^−1s^−1"}, {"measurement": "reduction of BSA fluorescence intensity at 343 nm", "setting": "BSA [4]; λex 280 nm, room temperature", "value": 40, "unit": "%"}, {"measurement": "Ka1 (k1/k−1)", "setting": "ct-DNA [5]; 1st step, 25 °C", "value": "40.0 M⁻¹ and 40 M⁻¹"}, {"measurement": "Kd", "setting": "ct-DNA [5]; 1st step, 25 °C, read-out: Kd1 (k−1/k1)", "value": 25.6, "unit": "mM"}, {"measurement": "K2 (2nd step)", "setting": "ct-DNA [5]; 2nd step, 25 °C", "value": "0.29 ± 0.01", "unit": "M⁻¹ s⁻¹"}, {"measurement": "Ka2 (k2/k−2)", "setting": "ct-DNA [5]; 2nd step, 25 °C", "value": 47.5, "unit": "M⁻¹"}, {"measurement": "k−2", "setting": "ct-DNA [5]; 2nd step, 25 °C", "value": "6.1 ± 0.3 10^−3s^−1"}, {"measurement": "k1 (1st step, second-order association constant)", "setting": "ct-DNA [5]; 25 °C", "value": "27.0 ± 2.5", "unit": "M⁻¹ s⁻¹"}, {"measurement": "k−1 (1st step, first-order dissociation constant)", "setting": "ct-DNA [5]; 25 °C", "value": "0.69 ± 0.1", "unit": "s⁻¹"}, {"measurement": "Ka (overall binding)", "setting": "ct-DNA [5]; overall", "value": 1899, "unit": "M⁻¹"}, {"measurement": "IC50", "setting": "[6]", "value": "237.2 ± 1.3", "unit": "mg/L"}, {"measurement": "binding constant (ct-DNA)", "setting": "ct-DNA [7]", "value": 16000, "unit": "M⁻¹"}]}
